Data taken from patent US4062948A, “Dihydromocimycin antibiotics” (Gist-Brocades N.V., priority 1970, dated 1977).
Converted amounts (≈) assume the structure as drawn.

What was measured:
Assay in all cases: micro liquid serial dilution test (Table II)
Format in all cases: cell-based
Proteus morganii 2241 = conditions: Morganella morganii, 18 hours at 30° C or 37° C, recently isolated hospital strain, read-out: Minimum inhibitory concentration
Protocol: (§1) The microbiological activity of the antibiotic preparation towards a number of micoorganisms has been determined by a micro liquid serial dilution test:
(§2) A stock solution of the test compounds at a concentration of 200 μg/ml in 0.05 molar phosphate buffer at a pH of 6.5 was prepared and serial 1:1 dilutions were made with a liquid medium inoculated with the test organism, using conventional glass spot-test plates. The plates were incubated 18 hours at 30° C or 37° C. The minimum inhibitory concentration (MIC) which is the smallest concentration of compound completely inhibiting the growth of the test organism is read and calculated in μg/ml.
wherein ') indicates penicillinase-producer; ") indicates recently isolated hospital strain.

Vibrio coli 1846 = conditions: Campylobacter coli, 18 hours at 30° C or 37° C, read-out: Minimum inhibitory concentration
Protocol: as §1, §2

[1] = test system: Staphylococcus aureus A 321; conditions: A321, 18 hours at 30° C or 37° C, read-out: Minimum inhibitory concentration
Protocol: as §1, §2

Erwinia caretovora W 9 = conditions: W9, 18 hours at 30° C or 37° C, read-out: Minimum inhibitory concentration
Protocol: as §1, §2

[2] = test system: Salmonella typhimurium R 127; conditions: Salmonella enterica, 18 hours at 30° C or 37° C, read-out: Minimum inhibitory concentration
Protocol: as §1, §2

[3] = test system: Bacillus cereus ATCC 9139; conditions: ATCC9139, 18 hours at 30° C or 37° C, read-out: Minimum inhibitory concentration
Protocol: as §1, §2

[4] = test system: Diplococcus pneumoniae A 188; conditions: Streptococcus pneumoniae, A188; 18 hours at 30° C or 37° C; read-out: Minimum inhibitory concentration
Protocol: as §1, §2

Escherichia coli U 20 = conditions: U20, 18 hours at 30° C or 37° C, read-out: Minimum inhibitory concentration
Protocol: as §1, §2

[5] = test system: Haemophilus influenzae A 773; conditions: A773, 18 hours at 30° C or 37° C, read-out: Minimum inhibitory concentration
Protocol: as §1, §2

[6] = test system: Saccharomyces cerevisiae D 160; conditions: D160, 18 hours at 30° C or 37° C, read-out: Minimum inhibitory concentration
Protocol: as §1, §2

[7] = test system: Streptococcus disgalactiae A 730; conditions: A730, 18 hours at 30° C or 37° C, read-out: Minimum inhibitory concentration
Protocol: as §1, §2

[8] = test system: Streptococcus faecalis A 306; conditions: Enterococcus faecalis, A306; 18 hours at 30° C or 37° C; read-out: Minimum inhibitory concentration
Protocol: as §1, §2

[9] = test system: Mycoplasma suipneumoniae A 2174; conditions: Mesomycoplasma hyopneumoniae, A2174; 18 hours at 30° C or 37° C; read-out: Minimum inhibitory concentration
Protocol: as §1, §2

Escherichia coli M = conditions: 18 hours at 30° C or 37° C, read-out: Minimum inhibitory concentration
Protocol: as §1, §2

[10] = test system: Actinobacillus equuli T 3; conditions: T3, 18 hours at 30° C or 37° C, read-out: Minimum inhibitory concentration
Protocol: as §1, §2

[11] = test system: Mycoplasma gallisepticum K 514
Protocol: as §1, §2

[12] = test system: Bacillus subtilis ATCC 6633; conditions: ATCC6633, 18 hours at 30° C or 37° C, read-out: Minimum inhibitory concentration
Protocol: as §1, §2

Sarcina lutea ATCC 9341 = conditions: Micrococcus luteus, ATCC9341; 18 hours at 30° C or 37° C; read-out: Minimum inhibitory concentration
Protocol: as §1, §2

[13] = test system: Torulopsis glabrata A 420; conditions: Nakaseomyces glabratus, A420; 18 hours at 30° C or 37° C; read-out: Minimum inhibitory concentration
Protocol: as §1, §2

[14] = test system: Escherichia coli NCTC 8196; conditions: NCTC8196, 18 hours at 30° C or 37° C, read-out: Minimum inhibitory concentration
Protocol: as §1, §2

Proteus mirabilis H 3 = conditions: H3, 18 hours at 30° C or 37° C, read-out: Minimum inhibitory concentration
Protocol: as §1, §2

Proteus rettgeri A 821 = conditions: Providencia rettgeri, A821; 18 hours at 30° C or 37° C; read-out: Minimum inhibitory concentration
Protocol: as §1, §2

[15] = test system: Mycoplasma hyorhinus A 2230; conditions: A2230, 18 hours at 30° C or 37° C, read-out: Minimum inhibitory concentration
Protocol: as §1, §2

[16] = test system: Streptococcus agalactiae A 732; conditions: A732, 18 hours at 30° C or 37° C, read-out: Minimum inhibitory concentration
Protocol: as §1, §2

Candida albicans A 7 = conditions: A7, 18 hours at 30° C or 37° C, read-out: Minimum inhibitory concentration
Protocol: as §1, §2

Micrococcus flavus A 54 = conditions: A54, 18 hours at 30° C or 37° C, read-out: Minimum inhibitory concentration
Protocol: as §1, §2

[17] = test system: Lactobacillus acidophilus D 218; conditions: D218, 18 hours at 30° C or 37° C, read-out: Minimum inhibitory concentration
Protocol: as §1, §2

[18] = test system: Pasteurella multocida A 723; conditions: A723, 18 hours at 30° C or 37° C, read-out: Minimum inhibitory concentration
Protocol: as §1, §2

Aspergilus niger D 184 = conditions: 18 hours at 30° C or 37° C; read-out: Minimum inhibitory concentration
Protocol: as §1, §2

How did the MIC (Proteus morganii 2241) turn out when `CC=CC=CC1OC(O)(C(CC)C(=O)NCC=CC=C(C)C(OC)C(C)C2OC(C=CC=CC=C(C)C(=O)c3c(O)cc[nH]c3=O)C(O)C2O)C(O)C(O)C1(C)C` (stereo not drawn) [mocimycin] was run?
The MIC was 100 µg/mL (≈ 125 µM).

And the MIC (Vibrio coli 1846)?
Its MIC is 100 µg/mL (≈ 125 µM).

What about the MIC [1] of the same compound?
Its MIC is 100 µg/mL (≈ 125 µM).

What about the MIC (Erwinia caretovora W 9) of the same compound?
Its MIC is 6 µg/mL (≈ 7.53 µM).

What about the MIC [2] of the same compound?
The MIC was > 100 µg/mL.

What about the MIC [3] of the same compound?
The MIC was 0.3 µg/mL (≈ 0.376 µM).

And the MIC [4]?
The MIC was 1 µg/mL (≈ 1.25 µM).

And the MIC (Escherichia coli U 20)?
Its MIC is > 100 µg/mL.

And the MIC [5]?
Its MIC is 2 µg/mL (≈ 2.51 µM).

What about the MIC [6] of the same compound?
The MIC was > 100 µg/mL.

What about the MIC [7] of the same compound?
The MIC was 0.6 µg/mL (≈ 0.753 µM).

What about the MIC [8] of the same compound?
Its MIC is 1 µg/mL (≈ 1.25 µM).

And the MIC [9]?
Its MIC is 1 µg/mL (≈ 1.25 µM).

What about the MIC (Escherichia coli M) of the same compound?
The MIC was > 100 µg/mL.

What about the MIC [10] of the same compound?
Its MIC is 1.5 µg/mL (≈ 1.88 µM).

And the MIC ([11]; Mycoplasmoides gallisepticum, K514, 18 hours at 30° C or 37° C, read-out: Minimum inhibitory concentration)?
Its MIC is 0.1 µg/mL (≈ 0.125 µM).

And the “activity against Mycoplasma gallisepticum” value ([11]; in vitro, summary of Table II)?
The value was “high activity”.

What about the MIC [12] of the same compound?
Its MIC is 50 µg/mL (≈ 62.7 µM).

What about the MIC (Sarcina lutea ATCC 9341) of the same compound?
Its MIC is 25 µg/mL (≈ 31.4 µM).

What about the MIC [13] of the same compound?
Its MIC is > 100 µg/mL.

And the MIC [14]?
Its MIC is 50 µg/mL (≈ 62.7 µM).

And the MIC (Proteus mirabilis H 3)?
The MIC was 50 µg/mL (≈ 62.7 µM).

What about the MIC (Proteus rettgeri A 821) of the same compound?
The MIC was > 100 µg/mL.

What about the MIC [15] of the same compound?
The MIC was 3 µg/mL (≈ 3.76 µM).

What about the MIC [16] of the same compound?
The MIC was 0.9 µg/mL (≈ 1.13 µM).

What about the MIC (Candida albicans A 7) of the same compound?
Its MIC is > 100 µg/mL.

What about the MIC (Micrococcus flavus A 54) of the same compound?
The MIC was 4 µg/mL (≈ 5.02 µM).

And the MIC [17]?
Its MIC is > 100 µg/mL.

What about the MIC [18] of the same compound?
The MIC was 4 µg/mL (≈ 5.02 µM).

What about the MIC (Aspergilus niger D 184) of the same compound?
The MIC was > 100 µg/mL.
